Assay results taken from the supplement of paper PMC8882468.

Tested on: HCI-025 (organoid from a breast cancer xenograft)
Test: CTG-3D luminescence at 96 h relative to day-0 seeding control (ratio to day 0); higher = more growth / less cytotoxicity; PDxO 3D drug screen, 96 h, CTG-3D normalised to day-0 seeding control.
Details: 10 µM; days in culture: 209

Row | Structure (SMILES) | CTG-3D luminescence at 96 h
1 | Cc1cc(Nc2ncc(Cl)c(Nc3ccccc3S(=O)(=O)C(C)C)n2)c(OC(C)C)cc1C1CCNCC1 [ceritinib] | 0.628
2 | CS(=O)(=O)c1ccc(C(=O)Nc2ccc(Cl)c(-c3ccccn3)c2)c(Cl)c1 [vismodegib] | 1.4
3 | NC(=O)c1cccc2cn(-c3ccc([C@@H]4CCCNC4)cc3)nc12 [niraparib] | 0.545

Same assay, conditions: 10 µM; days in culture: 218

Row | Structure (SMILES) | CTG-3D luminescence at 96 h
4 | C[C@@H]1COCCN1c1cc(C2([S@](C)(=N)=O)CC2)nc(-c2cc[nH]c3nccc2-3)n1 [ceralasertib] | 0.482
5 | CCN1CCN(Cc2ccc(Nc3ncc(F)c(-c4cc(F)c5nc(C)n(C(C)C)c5c4)n3)nc2)CC1 [abemaciclib] | 1.84
6 | NC1(C(=O)N[C@@H](CCO)c2ccc(Cl)cc2)CCN(c2nc[nH]c3nccc2-3)CC1 [capivasertib] | 0.592
7 | CC(C)n1nc(-c2ccc3oc(N)nc3c2)c2c(N)ncnc21 [sapanisertib] | 0.291
8 | O=C(c1ccc(F)c(F)c1Nc1ccc(I)cc1F)N1CC(O)([C@@H]2CCCCN2)C1 [cobimetinib] | 1.58
9 | C[C@H](NC(=O)CCC(F)(F)F)C(=O)N[C@@H]1C(=O)N(CCO)c2ncccc2-c2ccccc21 [crenigacestat] | 2.32
10 | Cc1cc(Nc2ncc(Cl)c(Nc3ccccc3S(=O)(=O)C(C)C)n2)c(OC(C)C)cc1C1CCNCC1 [ceritinib] | 1.48
11 | CS(=O)(=O)c1ccc(C(=O)Nc2ccc(Cl)c(-c3ccccn3)c2)c(Cl)c1 [vismodegib] | 1.88
12 | NC(=O)c1cccc2cn(-c3ccc([C@@H]4CCCNC4)cc3)nc12 [niraparib] | 0.271

Same assay, conditions: 100 µM; days in culture: 172

Row | Structure (SMILES) | CTG-3D luminescence at 96 h
13 | C[C@@H]1COCCN1c1cc(C2([S@](C)(=N)=O)CC2)nc(-c2cc[nH]c3nccc2-3)n1 [ceralasertib] | 0.297
14 | CCN1CCN(Cc2ccc(Nc3ncc(F)c(-c4cc(F)c5nc(C)n(C(C)C)c5c4)n3)nc2)CC1 [abemaciclib] | 0.0181
15 | NC1(C(=O)N[C@@H](CCO)c2ccc(Cl)cc2)CCN(c2nc[nH]c3nccc2-3)CC1 [capivasertib] | 0.354
16 | CC(C)n1nc(-c2ccc3oc(N)nc3c2)c2c(N)ncnc21 [sapanisertib] | 0.00492
17 | O=C(c1ccc(F)c(F)c1Nc1ccc(I)cc1F)N1CC(O)([C@@H]2CCCCN2)C1 [cobimetinib] | -0.00396
18 | C[C@H](NC(=O)CCC(F)(F)F)C(=O)N[C@@H]1C(=O)N(CCO)c2ncccc2-c2ccccc21 [crenigacestat] | 1.98
19 | Cc1cc(Nc2ncc(Cl)c(Nc3ccccc3S(=O)(=O)C(C)C)n2)c(OC(C)C)cc1C1CCNCC1 [ceritinib] | -0.00729
20 | CS(=O)(=O)c1ccc(C(=O)Nc2ccc(Cl)c(-c3ccccn3)c2)c(Cl)c1 [vismodegib] | 0.368
21 | NC(=O)c1cccc2cn(-c3ccc([C@@H]4CCCNC4)cc3)nc12 [niraparib] | -0.311

Same assay, conditions: 100 µM; days in culture: 209

Row | Structure (SMILES) | CTG-3D luminescence at 96 h
22 | C[C@@H]1COCCN1c1cc(C2([S@](C)(=N)=O)CC2)nc(-c2cc[nH]c3nccc2-3)n1 [ceralasertib] | 0.184
23 | CCN1CCN(Cc2ccc(Nc3ncc(F)c(-c4cc(F)c5nc(C)n(C(C)C)c5c4)n3)nc2)CC1 [abemaciclib] | 0.0124
24 | NC1(C(=O)N[C@@H](CCO)c2ccc(Cl)cc2)CCN(c2nc[nH]c3nccc2-3)CC1 [capivasertib] | 0.266
25 | CC(C)n1nc(-c2ccc3oc(N)nc3c2)c2c(N)ncnc21 [sapanisertib] | 0.0409
26 | O=C(c1ccc(F)c(F)c1Nc1ccc(I)cc1F)N1CC(O)([C@@H]2CCCCN2)C1 [cobimetinib] | -0.00298
27 | C[C@H](NC(=O)CCC(F)(F)F)C(=O)N[C@@H]1C(=O)N(CCO)c2ncccc2-c2ccccc21 [crenigacestat] | 1.45
28 | Cc1cc(Nc2ncc(Cl)c(Nc3ccccc3S(=O)(=O)C(C)C)n2)c(OC(C)C)cc1C1CCNCC1 [ceritinib] | -0.00366
29 | CS(=O)(=O)c1ccc(C(=O)Nc2ccc(Cl)c(-c3ccccn3)c2)c(Cl)c1 [vismodegib] | 0.0933
30 | NC(=O)c1cccc2cn(-c3ccc([C@@H]4CCCNC4)cc3)nc12 [niraparib] | -0.0263

Same assay, conditions: 100 µM; days in culture: 218

Row | Structure (SMILES) | CTG-3D luminescence at 96 h
31 | C[C@@H]1COCCN1c1cc(C2([S@](C)(=N)=O)CC2)nc(-c2cc[nH]c3nccc2-3)n1 [ceralasertib] | 0.269
32 | CCN1CCN(Cc2ccc(Nc3ncc(F)c(-c4cc(F)c5nc(C)n(C(C)C)c5c4)n3)nc2)CC1 [abemaciclib] | 0.0142
33 | NC1(C(=O)N[C@@H](CCO)c2ccc(Cl)cc2)CCN(c2nc[nH]c3nccc2-3)CC1 [capivasertib] | 0.288
34 | CC(C)n1nc(-c2ccc3oc(N)nc3c2)c2c(N)ncnc21 [sapanisertib] | 0.0278
35 | O=C(c1ccc(F)c(F)c1Nc1ccc(I)cc1F)N1CC(O)([C@@H]2CCCCN2)C1 [cobimetinib] | -0.00137
36 | C[C@H](NC(=O)CCC(F)(F)F)C(=O)N[C@@H]1C(=O)N(CCO)c2ncccc2-c2ccccc21 [crenigacestat] | 1.58
37 | Cc1cc(Nc2ncc(Cl)c(Nc3ccccc3S(=O)(=O)C(C)C)n2)c(OC(C)C)cc1C1CCNCC1 [ceritinib] | -0.00328
38 | CS(=O)(=O)c1ccc(C(=O)Nc2ccc(Cl)c(-c3ccccn3)c2)c(Cl)c1 [vismodegib] | -0.104
39 | NC(=O)c1cccc2cn(-c3ccc([C@@H]4CCCNC4)cc3)nc12 [niraparib] | -0.304
